According to US20230389548A1, “MIXTURES OF PYRIMIDINES AS HERBICIDAL COMPOSITIONS” (SYNGENTA CROP PROTECTION AG, priority 2020, published 2023):

Key:
Experiment in all cases: Post-emergence glasshouse spray test, visual percentage phytotoxicity after 13 days
Type in all cases: in vivo
[1] = test system: Amaranthus retroflexus (AMARE); conditions: for AMARE percentage phytotoxicity: B1
Procedure: (§1) Seeds of Setaria faberi (SETFA), Echinochloa crus-galli (ECHCG), Digitaria sanguinalis (DIGSA), Lolium perenne (LOLPE), Alopecurus myosuroides (ALOMY), Chenopodium album (CHEAL), Ipomoea hederacea (IPOHE), Stellaria media (STEME), Abutilon threophrasti (ABUTH), Amaranthus retroflexus (AMARE) were sown in standard sterilised soil in pots. After cultivation for 8 days under controlled conditions in a glasshouse (at 24/19° C., day/night; 16 hours light; no humidity control), the plants were sprayed at 500 l/Ha with an aqueous spray solution derived from the formulation of the technical active ingredients in a small amount of acetone and a solvent and emulsifier mixture referred to as IF50 (11.12% Emulsogen EL360™+44.44% N-methylpyrrolidone+44.44% Dowanol DPM glycol ether), to create a 50 g/l solution which was then diluted using 0.2% Genapol XO80 (CAS Number: 9043-30-5) as diluent to give the desired final dose of test compound.
(§2) Where active ingredients were applied as mixtures, aqueous spray solutions were prepared as above, containing both active ingredients.
(§3) The test plants were then grown under controlled conditions in a glasshouse (at 24/18° C., day/night; 15 hours light; 50% humidity) and watered twice daily. After 13 days, the test was evaluated visually for percentage phytotoxicity to the plants (where 100=total damage to plant; 0=no damage to plant; and NC=not captured) when compared to control untreated plants. Two to four replicates were applied for each treatment in a randomised block test design.
(§4) 22., E=X+Y−(X*Y/100), where
(§5) X=average percent phytotoxicity of herbicide A when applied at a certain rate Y=average percent phytotoxicity using herbicide B when applied at a certain rate E=the expected effect of the mixture of herbicides A and B as calculated from the Colby formula.

Lolium perenne (LOLPE) = conditions: for LOLPE percentage phytotoxicity: B1; for Observed phytotoxicity LOLPE: B2.1.1
Procedure: as §1, §2, §3, §4, §5

[2] = test system: Echinochloa crus-galli (ECHCG); conditions: for ECHCG percentage phytotoxicity: B1; for Observed phytotoxicity ECHCG: B2.1.2
Procedure: as §1, §2, §3, §4, §5

Stellaria media (STEME) = conditions: for STEME percentage phytotoxicity: B1; for Observed phytotoxicity STEME: B2.1.4
Procedure: as §1, §2, §3, §4, §5

[3] = test system: Digitaria sanguinalis (DIGSA); conditions: B1
Procedure: as §1, §2, §3, §4, §5

[4] = test system: Chenopodium album (CHEAL); conditions: for CHEAL percentage phytotoxicity: B1; for Observed phytotoxicity CHEAL: B2.1.6
Procedure: as §1, §2, §3, §4, §5

[5] = test system: Ipomoea hederacea (IPOHE); conditions: B1
Procedure: as §1, §2, §3, §4, §5

[6] = test system: Abutilon threophrasti (ABUTH); conditions: for ABUTH percentage phytotoxicity: B1; for Observed phytotoxicity ABUTH: B2.1.7
Procedure: as §1, §2, §3, §4, §5

Setaria faberi (SETFA) = conditions: for SETFA percentage phytotoxicity: B1
Procedure: as §1, §2, §3, §4, §5

CN1C[C@H](c2cccc(C(F)(F)F)c2)[C@@H](C(=O)Nc2ccccc2F)C1=O [B-III]
AMARE percentage phytotoxicity ([1]; 3.125 g/ha post-emergence): 4%
AMARE percentage phytotoxicity ([1]; 6.25 g/ha post-emergence): 6%
AMARE percentage phytotoxicity ([1]; 12.5 g/ha post-emergence): 10%
AMARE percentage phytotoxicity ([1]; 25 g/ha post-emergence): 21%
AMARE percentage phytotoxicity ([1]; 50 g/ha post-emergence): 31%
Observed phytotoxicity AMARE ([1]; B2.1.5, 6.25 g/ha post-emergence): 6%
LOLPE percentage phytotoxicity (Lolium perenne (LOLPE); 3.125 g/ha post-emergence): 30%
LOLPE percentage phytotoxicity (Lolium perenne (LOLPE); 6.25 g/ha post-emergence): 43%
LOLPE percentage phytotoxicity (Lolium perenne (LOLPE); 12.5 g/ha post-emergence): 55%
LOLPE percentage phytotoxicity (Lolium perenne (LOLPE); 25 g/ha post-emergence): 70%
LOLPE percentage phytotoxicity (Lolium perenne (LOLPE); 50 g/ha post-emergence): 75%
Observed phytotoxicity LOLPE (Lolium perenne (LOLPE); 6.25 g/ha post-emergence): 43%
Observed phytotoxicity LOLPE (Lolium perenne (LOLPE); 12.5 g/ha post-emergence): 55%
ECHCG percentage phytotoxicity ([2]; 3.125 g/ha post-emergence): 70%
ECHCG percentage phytotoxicity ([2]; 6.25 g/ha post-emergence): 70%
ECHCG percentage phytotoxicity ([2]; 12.5 g/ha post-emergence): 73%
ECHCG percentage phytotoxicity ([2]; 25 g/ha post-emergence): 73%
ECHCG percentage phytotoxicity ([2]; 50 g/ha post-emergence): 75%
Observed phytotoxicity ECHCG ([2]; 12.5 g/ha post-emergence): 73%
Observed phytotoxicity ECHCG ([2]; 50 g/ha post-emergence): 75%
STEME percentage phytotoxicity (Stellaria media (STEME); 3.125 g/ha post-emergence): 13%
STEME percentage phytotoxicity (Stellaria media (STEME); 6.25 g/ha post-emergence): 21%
STEME percentage phytotoxicity (Stellaria media (STEME); 12.5 g/ha post-emergence): 14%
STEME percentage phytotoxicity (Stellaria media (STEME); 25 g/ha post-emergence): 46%
STEME percentage phytotoxicity (Stellaria media (STEME); 50 g/ha post-emergence): 71%
Observed phytotoxicity STEME (Stellaria media (STEME); 6.25 g/ha post-emergence): 21%
Observed phytotoxicity STEME (Stellaria media (STEME); 12.5 g/ha post-emergence): 14%
DIGSA percentage phytotoxicity ([3]; 3.125 g/ha post-emergence): 72%
DIGSA percentage phytotoxicity ([3]; 6.25 g/ha post-emergence): 74%
DIGSA percentage phytotoxicity ([3]; 12.5 g/ha post-emergence): 78%
DIGSA percentage phytotoxicity ([3]; 25 g/ha post-emergence): 79%
DIGSA percentage phytotoxicity ([3]; 50 g/ha post-emergence): 80%
CHEAL percentage phytotoxicity ([4]; 3.125 g/ha post-emergence): 6%
CHEAL percentage phytotoxicity ([4]; 6.25 g/ha post-emergence): 10%
CHEAL percentage phytotoxicity ([4]; 12.5 g/ha post-emergence): 14%
CHEAL percentage phytotoxicity ([4]; 25 g/ha post-emergence): 44%
CHEAL percentage phytotoxicity ([4]; 50 g/ha post-emergence): 56%
Observed phytotoxicity CHEAL ([4]; 6.25 g/ha post-emergence): 10%
Observed phytotoxicity CHEAL ([4]; 12.5 g/ha post-emergence): 14%
IPOHE percentage phytotoxicity ([5]; 3.125 g/ha post-emergence): 9%
IPOHE percentage phytotoxicity ([5]; 6.25 g/ha post-emergence): 11%
IPOHE percentage phytotoxicity ([5]; 12.5 g/ha post-emergence): 15%
IPOHE percentage phytotoxicity ([5]; 25 g/ha post-emergence): 24%
IPOHE percentage phytotoxicity ([5]; 50 g/ha post-emergence): 28%
ABUTH percentage phytotoxicity ([6]; 3.125 g/ha post-emergence): 10%
ABUTH percentage phytotoxicity ([6]; 6.25 g/ha post-emergence): 4%
ABUTH percentage phytotoxicity ([6]; 12.5 g/ha post-emergence): 3%
ABUTH percentage phytotoxicity ([6]; 25 g/ha post-emergence): 19%
ABUTH percentage phytotoxicity ([6]; 50 g/ha post-emergence): 18%
Observed phytotoxicity ABUTH ([6]; 6.25 g/ha post-emergence): 4%
Observed phytotoxicity ABUTH ([6]; 12.5 g/ha post-emergence): 3%
Observed phytotoxicity ABUTH ([6]; 25 g/ha post-emergence): 19%
Observed phytotoxicity ABUTH ([6]; 50 g/ha post-emergence): 18%
SETFA percentage phytotoxicity (Setaria faberi (SETFA); 3.125 g/ha post-emergence): 66%
SETFA percentage phytotoxicity (Setaria faberi (SETFA); 6.25 g/ha post-emergence): 68%
SETFA percentage phytotoxicity (Setaria faberi (SETFA); 12.5 g/ha post-emergence): 70%
SETFA percentage phytotoxicity (Setaria faberi (SETFA); 25 g/ha post-emergence): 74%
SETFA percentage phytotoxicity (Setaria faberi (SETFA); 50 g/ha post-emergence): 73%
Observed phytotoxicity SETFA (Setaria faberi (SETFA); B2.1.3, 25 g/ha post-emergence): 74%
